Legend:
Format in all cases: in vivo
[1] = system: korean lespedeza (Kummerowia stipulacea (Maxim.) Makino); assay: Test Example 8: soil treatment, korean lespedeza pot test; settings: read-out: Growth inhibition rate of korean lespedeza (%) Measured Value
Method: (§1) Upland field soil was put into a 1/300,000 ha pot, and seeds of korean lespedeza (Kummerowia stipulacea (Maxim.) Makino) were sown. On the next day, predetermined amounts of the above formulations respectively containing nicosulfuron, prosulfuron and bicyclopyrone were diluted with water (in an amount corresponding to 1,000 L/ha) and applied for soil treatment by a small sprayer.

[2] = system: ivy-leaved morningglory (Ipomoea hederacea (L.) Jacq.); assay: Test Example 7: soil treatment, ivy-leaved morningglory pot test; settings: read-out: Growth inhibition rate of ivy-leaved morningglory (%) Measured value
Method: as §1, with “ivy-leaved morningglory (Ipomoea hederacea (L.) Jacq.)” for “korean lespedeza (Kummerowia stipulacea (Maxim.) Makino)”

[3] = system: velvetleaf (Abutilon theophrasti Medic.); assay: Test Example 11: foliar treatment, velvetleaf pot test; settings: read-out: Growth inhibition rate of velvetleaf (%) Measured value
Method: Upland field soil was put into a 1/1,000,000 ha pot, and seeds of velvetleaf (Abutilon theophrasti Medic.) were sown. When the velvetleaf reached 5.0 to 5.3-leaf stage, predetermined amounts of the above formations respectively containing nicosulfuron, prosulfuron, dicamba, bromoxynil-octanoate and bicyclopyrone were diluted with water (in an amount corresponding to 300 L/ha) and applied for foliar treatment by a small sprayer.

[4] = system: prickly sida (Sida spinosa L.); assay: Test Example 4: soil treatment, prickly sida pot test; settings: read-out: Growth inhibition rate of prickly sida (%) Measured value
Method: as §1, with “prickly sida (Sida spinosa L.)” for “korean lespedeza (Kummerowia stipulacea (Maxim.) Makino)”, “prosulfuron, dicamba” for “prosulfuron”

[5] = system: annual ragweed (Ambrosia artemisiifolia L.); assay: Test Example 6: soil treatment, annual ragweed pot test; settings: 28th day after treatment, read-out: Growth inhibition rate of annual ragweed (%) Measured value
Method: as §1, with “annual ragweed (Ambrosia artemisiifolia L.)” for “korean lespedeza (Kummerowia stipulacea (Maxim.) Makino)”, “bromoxynil-octanoate” for “bicyclopyrone”

[6] = system: black nightshade (Solanum nigrum L.); assay: Test Example 5: soil treatment, black nightshade pot test; settings: 28th day after treatment, read-out: Growth inhibition rate of black nightshade (%) Measured value
From the text: Upland field soil was put into a 1/300,000 ha pot, and seeds of black nightshade (Solanum nigrum L.) were sown. […] On the 28th day after treatment, the state of growth of the black nightshade was visually observed to determine the growth inhibition rate (%).

[7] = system: common lespedeza (Lespedeza striata (Thunb.) Hook. et Arn.); assay: Test Example 10: foliar treatment, common lespedeza pot test; settings: Kummerowia striata, foliar treatment at 4.0-leaf stage, 14th day after treatment, read-out: Growth inhibition rate of common lespedeza (%) Measured value
Method: (§2) Upland field soil was put into a 1/1,000,000 ha pot, and seeds of common lespedeza (Lespedeza striata (Thunb.) Hook. et Arn.) were sown. When the common lespedeza reached 4.0-leaf stage, predetermined amounts of the above formulations respectively containing nicosulfuron, prosulfuron and dicamba were diluted with water (in an amount corresponding to 300 L/ha) and applied for foliar treatment by a small sprayer.

[8] = system: annual ragweed (Ambrosia artemisiifolia L.); assay: Test Example 9: foliar treatment, annual ragweed pot test; settings: foliar treatment at 6.0 to 8.0-leaf stage, 14th day after treatment, read-out: Growth inhibition rate of annual ragweed (%) Measured value
Method: as §2, with “annual ragweed (Ambrosia artemisiifolia L.)” for “common lespedeza (Lespedeza striata (Thunb.) Hook. et Arn.)”, “annual ragweed” for “common lespedeza”, “6.0 to 8.0-leaf” for “4.0-leaf”, “mesotrione” for “dicamba”
On the 14th day after treatment, the state of growth of the annual ragweed was visually observed to determine the growth inhibition rate (%). The growth inhibition rate (%) (measured value) and the growth inhibition rate (%) calculated in the same manner as in the above Test Example 1 are shown in Table 9.

[9] = system: wild oat (Avena fatua L.); assay: Test Example 2: soil treatment, wild oat pot test; settings: 28th day after treatment, read-out: Growth inhibition rate of wild oat (%) Measured value
From the text: (§3) Upland field soil was put into a 1/300,000 ha pot, and seeds of wild oat (Avena fatua L.) were sown. […] On the 28th day after treatment, the state of growth of the wild oat was visually observed to determine the growth inhibition rate (%).

[10] = system: sunn-hemp (Crotalaria juncea L.); assay: Test Example 1: soil treatment, sunn-hemp pot test; settings: 28th day after treatment, read-out: Growth inhibition rate of sunn-hemp (%) Measured value
From the text: On the 28th day after treatment, the state of growth of the sunn-hemp was visually observed to determine the growth inhibition rate (%) in accordance with the following evaluation standard. The growth inhibition rate (%) (measured value) and the growth inhibition rate (%) (calculated value) calculated by the Colby's formula are shown in Table 1.

[11] = system: wild oat (Avena fatua L.); assay: Test Example 3: soil treatment, wild oat pot test; settings: 28th day after treatment, read-out: Growth inhibition rate of wild oat (%) Measured value
From the text: as §3

[12] = soil treatment, 28th day after treatment
[13] = dose 100 g/ha, soil treatment, 28th day after treatment
[14] = dose 2.5 g/ha, soil treatment, 28th day after treatment

Question: What does the source list for `COCCOCc1nc(C(F)(F)F)ccc1C(=O)C1=C(O)C2CCC(C2)C1=O` (centres unmarked) [Bicyclopyrone, 4-hydroxy-3-{2-[(2-methoxyethoxy)methyl]-6-(trifluoromethyl)-3-pyridylcarbonyl}bicyclo[3.2.1]oct-3-en-2-one]?
Answer: inhibition at 400 g/ha ([1]; soil): 78%; inhibition at 25 g/ha ([2]; soil): 5%; inhibition at 400 g/ha ([2]; soil): 25%; inhibition at 100 g/ha ([3]; foliar): 40%; inhibition at 25 g/ha ([4]; soil): 25%

Question: Which inhibition at 100 g/ha [5] does the source give for `CCCCCCCC(=O)Oc1c(Br)cc(C#N)cc1Br` [Bromoxynil-octanoate, bromoxynil-octanoate] here?
Answer: Its inhibition at 100 g/ha is 0%.

Question: And the inhibition at 200 g/ha ([5]; dose 200 g/ha)?
Answer: The inhibition at 200 g/ha was 0%.

Question: What about the inhibition at 500 g/ha ([5]; dose 500 g/ha) of the same compound?
Answer: The inhibition at 500 g/ha was 0%.

Question: What about the inhibition at 100 g/ha ([6]; dose 100 g/ha) of the same compound?
Answer: Its inhibition at 100 g/ha is 0%.

Question: And the inhibition at 500 g/ha ([6]; dose 500 g/ha)?
Answer: The inhibition at 500 g/ha was 0%.

Question: And the inhibition at 200 g/ha ([3]; dose 200 g/ha, foliar treatment at 5.0 to 5.3-leaf stage, 20th day after treatment)?
Answer: Its inhibition at 200 g/ha is 5%.

Question: How did the inhibition at 100 g/ha ([7]; dose 100 g/ha) turn out when `COc1c(Cl)ccc(Cl)c1C(=O)O` [Dicamba, dicamba] was run?
Answer: The inhibition at 100 g/ha was 23%.

Question: And the inhibition at 150 g/ha ([7]; dose 150 g/ha)?
Answer: The inhibition at 150 g/ha was 50%.

Question: And the inhibition at 150 g/ha ([3]; dose 150 g/ha, foliar treatment at 5.0 to 5.3-leaf stage, 20th day after treatment)?
Answer: The inhibition at 150 g/ha was 8%.

Question: What about the inhibition at 50 g/ha [4, 12] of the same compound?
Answer: The inhibition at 50 g/ha was 0%.

Question: And the inhibition at 150 g/ha ([4]; dose 150 g/ha, soil treatment, 28th day after treatment)?
Answer: The inhibition at 150 g/ha was 20%.

Question: What about the inhibition at 400 g/ha ([4]; dose 400 g/ha, soil treatment, 28th day after treatment) of the same compound?
Answer: Its inhibition at 400 g/ha is 40%.

Question: `CS(=O)(=O)c1ccc(C(=O)C2C(=O)CCCC2=O)c([N+](=O)[O-])c1` [Mesotrione, 2-(4-mesyl-2-nitrobenzoyl)cyclohexane-1,3-dione] was tested. Which inhibition at 75 g/ha ([8]; dose 75 g/ha) did it give?
Answer: The inhibition at 75 g/ha was 25%.

Question: And the inhibition at 25 g/ha ([9]; dose 25 g/ha)?
Answer: The inhibition at 25 g/ha was 0%.

Question: What about the inhibition at 150 g/ha ([9]; dose 150 g/ha) of the same compound?
Answer: Its inhibition at 150 g/ha is 0%.

Question: And the inhibition at 150 g/ha ([10]; dose 150 g/ha)?
Answer: The inhibition at 150 g/ha was 30%.

Question: What about the inhibition at 50 g/ha ([11]; dose 50 g/ha) of the same compound?
Answer: The inhibition at 50 g/ha was 0%.

Question: Which inhibition at 30 g/ha ([5]; dose 30 g/ha) does the source give for `COc1cc(OC)nc(NC(=O)NS(=O)(=O)c2ncccc2C(=O)N(C)C)n1` [Nicosulfuron, 2-(4,6-dimethoxypyrimidin-2-ylcarbamoylsulfamoyl)-N,N-dimethylnicotinamide] here?
Answer: The inhibition at 30 g/ha was 0%.

Question: And the inhibition at 100 g/ha [5]?
Answer: Its inhibition at 100 g/ha is 0%.

Question: And the inhibition at 10 g/ha ([6]; dose 10 g/ha)?
Answer: Its inhibition at 10 g/ha is 20%.

Question: What about the inhibition at 30 g/ha ([8]; dose 30 g/ha) of the same compound?
Answer: The inhibition at 30 g/ha was 0%.

Question: And the inhibition at 100 g/ha [1, 13]?
Answer: The inhibition at 100 g/ha was 30%.

Question: And the inhibition at 100 g/ha ([9]; dose 100 g/ha)?
Answer: Its inhibition at 100 g/ha is 80%.

Question: What about the inhibition at 10 g/ha ([2]; dose 10 g/ha, soil treatment, 14th day after treatment) of the same compound?
Answer: The inhibition at 10 g/ha was 0%.

Question: What about the inhibition at 30 g/ha ([7]; dose 30 g/ha) of the same compound?
Answer: Its inhibition at 30 g/ha is 5%.

Question: What about the inhibition at 10 g/ha ([10]; dose 10 g/ha) of the same compound?
Answer: The inhibition at 10 g/ha was 30%.

Question: And the inhibition at 10 g/ha ([4]; dose 10 g/ha, soil treatment, 28th day after treatment)?
Answer: The inhibition at 10 g/ha was 10%.

Question: And the inhibition at 30 g/ha ([4]; dose 30 g/ha, soil treatment, 28th day after treatment)?
Answer: Its inhibition at 30 g/ha is 10%.

Question: And the inhibition at 100 g/ha [4, 13]?
Answer: The inhibition at 100 g/ha was 20%.

Question: And the inhibition at 30 g/ha ([11]; dose 30 g/ha)?
Answer: The inhibition at 30 g/ha was 70%.

Question: Which results are given for `COc1nc(C)nc(NC(=O)NS(=O)(=O)c2ccccc2CCC(F)(F)F)n1` [Prosulfuron, 1-(4-methoxy-6-methyl-1,3,5-triazin-2-yl)-3-[2-(3,3,3-trifluoropropyl)phenylsulfonyl]urea]?
Answer: inhibition at 2.5 g/ha ([5]; dose 2.5 g/ha): 78%; inhibition at 15 g/ha ([5]; dose 15 g/ha): 93%; inhibition at 50 g/ha ([6]; dose 50 g/ha): 20%; inhibition at 10 g/ha ([8]; dose 10 g/ha): 55%; inhibition at 15 g/ha ([8]; dose 15 g/ha): 53%; inhibition at 2.5 g/ha [1, 14]: 50%; inhibition at 2.5 g/ha ([9]; dose 2.5 g/ha): 0%; inhibition at 50 g/ha ([2]; dose 50 g/ha, soil treatment, 14th day after treatment): 50%; inhibition at 10 g/ha ([7]; dose 10 g/ha): 10%; inhibition at 15 g/ha ([7]; dose 15 g/ha): 13%; inhibition at 50 g/ha ([10]; dose 50 g/ha): 60%; inhibition at 2.5 g/ha [4, 14]: 20%; inhibition at 15 g/ha ([4]; dose 15 g/ha, soil treatment, 28th day after treatment): 20%; inhibition at 50 g/ha [4, 12]: 40%; inhibition at 15 g/ha ([11]; dose 15 g/ha): 0%

Source: patent publication US9380783B2, “Herbicidal composition” (priority 2012, dated 2016)
